# Data reported in US10604585B2, “Modulation of PTPRA to treat arthritis” (La Jolla Institute for Allergy & Immunology, priority 2014, dated 2020).
# Key:
# RA FLS [1] = assay: Death of RA FLS on treatment with FAK inhibitor; type: cell-based, human; settings: at the concentrations used in these experiments
# RA FLS [2] = assay: RA FLS induction of gene expression in response to TNF and IL-1β (qPCR, ELISA); type: cell-based, human; settings: for TNF- and IL-1-induced production of CXCL10 / TNF- and IL-1-induced production of IL6 / TNF- and IL-1-induced production of MMP13: 50 ng/ml TNFα or 2 ng/ml IL-1β with inhibitor for 24 hr
# Procedure: FLS were obtained from the UCSD CTRI Biorepository. Each line was previously obtained from discarded synovial tissue of a different patient with RA at the time of synovectomy, as described previously (21). The diagnosis of RA conformed to American College of Rheumatology 1987 revised criteria(22). FLS were cultured in DMEM (Mediatech, Manassas, Va.) with 10% fetal bovine serum (FBS, Omega Scientific, Tarzana, Calif.), 2 mM L-glutamine, […] gentamicin, 100 units/ml of penicillin and […] streptomycin (Life Technologies, Carlsbad, Calif.) at 37° C. in a humidified 5% CO2 atmosphere. For all experiments, FLS were used between passages 4-10, and cells were synchronized in 0.1% FBS (serum-starvation media) for 48 hours prior to analysis or functional assays.
# RNA was extracted using RNeasy Kits (Qiagen, Valencia, Calif.) or Trizol (Life Technologies). For lysis of FLS, adherent cells were first washed in PBS and then lysed in the culture plate. cDNA was synthesized using the SuperScript® III First-Strand Synthesis SuperMix (Life Technologies). qPCR was performed using a Roche Lightcycler 480 (Indianapolis, Ind.), with primer assays from SABiosciences/Qiagen. Reactions were measured in triplicate and data was normalized to the expression levels of the house-keeping gene glyceraldehyde 3-phosphate dehydrogenase (GAPDH) or RNA Polymerase II (RPII) (23).
# (§1) FLS were treated with 2.5 uM PMO (Gene Tools, Philomath, OR) for 7 days. PMO was replaced in fresh culture medium after 3 days and in serum-starvation medium after 5 days.
# Secreted human IL-6 and chemokine (C-X-C motif) ligand 10 (CXCL10) were measured using ELISAs from Biolegend (San Diego, Calif.).
# RA FLS [3] = assay: Western blotting of RA FLS lysates (SRC, FAK, MAPK, AKT, NF-κB signaling); type: cell-based, human; settings: 10 μM inhibitor vs DMSO
# RA FLS [4] = assay: Spreading and adhesion assay on fibronectin-coated coverslips; type: cell-based, human; settings: 5% FBS, FIG. 2D
# Procedure: as §1
# Following treatment with PMO, equal numbers of live RA FLS were re-suspended in FLS medium containing 5% FBS and allowed to adhere onto coverslips coated with 20 μg/ml fibronectin (FN) at 37° C. for 15, 30 and 60 minutes. Cells were fixed in 4% para-formaldehyde for 5 minutes, permeabilized in 0.2% Triton X-100 for 2 minutes, and stained with 5 U/ml Alexa Fluor® 568 (AF 568)-conjugated phalloidin and 2 μg/ml Hoechst for 20 minutes (Life Technologies). Samples were imaged with an Olympus FV10i Laser Scanning Confocal Microscope (Olympus, Center Valley, Pa.). Using the FV10i acquisition software, each coverslip was separated into four nine-paneled mega-images. Each panel (1024×1024) was acquired with a 10× objective and then stitched together, through a 10% overlap, with the Olympus FluoView 1000 imaging software. Total cell number and cell areas for each panel were calculated using Image Pro Analyzer software (Media Cybernetics, Rockville, Md.).
# RA FLS [5] = assay: Survival and apoptosis assay (Annexin V / PI, FACS); type: cell-based, human; settings: sera-starvation media or in the presence of PDGF (50 ng/ml, 24 hr); FIG. 2C
# Procedure: as §1
# Following treatment with PMO, RA FLS were washed and incubated for an additional 24 hoursr in serum-starvation media. Adherent and non-adherent cells were collected and stained with Annexin V-Alexa Fluor® 647 and propidium iodide (PI) according to the manufacturer's instructions (Biolegend, San Diego, Calif.). Cell fluorescence was assessed by FACS using a BD LSR-II (BD Biosciences), and counts and percentages of live (Annexin V−PI−), early apoptotic (Annexin V+PI−), or late apoptotic/necrotic (Annexin V+PI+) cells were obtained. Data was analyzed for statistical significance using the Chi-square test for independence.
# RA FLS [6] = assay: Western blotting of RA FLS lysates (SRC, FAK, MAPK, AKT, NF-κB signaling); type: cell-based, human
# Procedure: as §1
# Adherent cells were washed in PBS and then lysed in the culture plate in RIPA buffer (25 mM Tris-HCl pH 7.6, 150 mM NaCl, 1% NP-40, 1% sodium deoxycholate, 0.1% SDS) containing 1 mM phenylmethanesulfonyl fluoride, 10 ng/ml aprotinin, 10 μg/ml leupeptin, 10 μg/ml soybean trypsin inhibitor, 10 mM sodium orthovanadate, 5 mM sodium fluoride and 2 mM sodium pyrophosphate. Protein concentration of cell lysates was determined using the Pierce BCA Protein Assay Kit (Thermo Scientific, Rockford, Ill.).
# RA FLS [7] = settings: reference (40); cited from earlier work
# [8] = 2.5 μM PMO for 7 d, then 2 ng/ml IL-1β for 24 hr, vs Ctl PMO, FIG. 1D
# [9] = 2.5 μM PMO for 7 d, then 50 ng/ml TNF for 24 hr, vs Ctl PMO, FIG. 1D
# [10] = RA FLS, 2.5 μM PMO for 7 d, FIG. 1D
# [11] = RA FLS, RPTPα knockdown with PMO, FIG. 3B, 3C
# [12] = basal conditions, PTPRA knockdown
# [13] = unstimulated PMO-treated RA FLS, FIG. 3D
# [14] = 2.5 μM PTPRA_2 PMO for 7 d, then 50 ng/ml TNF or 2 ng/ml IL-1 for 24 hr, FIGS. 8A-8B
compound,measurement,setting,value
CS(=O)(=O)c1cccc(CNc2nc(Nc3ccc4c(c3)CCC(=O)N4)ncc2C(F)(F)F)c1 [PF573228],death of RA FLS,RA FLS [1],does not cause death
same,TNF- and IL-1-induced production of CXCL10,"RA FLS [2]; RA FLS, vs DMSO, qPCR, FIG. 4A",significantly decreased
same,TNF- and IL-1-induced production of IL6,"RA FLS [2]; RA FLS, vs DMSO, qPCR, FIG. 4A",significantly decreased
same,TNF- and IL-1-induced production of MMP13,"RA FLS [2]; RA FLS, vs DMSO, qPCR, FIG. 4A",significantly decreased
same,p38-T180/Y185 phosphorylation,RA FLS [3]; 50 ng/ml TNF or 2 ng/ml IL-1β for 30 min,no effect
same,TNF- and IL-1β-induced phosphorylation of JNK-T183/Y185,"RA FLS [3]; 50 ng/ml TNF or 2 ng/ml IL-1β for 30 min, FIG. 4B",impaired
same,FAK-Y397 phosphorylation,RA FLS [3]; FIG. 4B,impaired
"PTPRA PMO: cell-permeable antisense morpholino oligo (PMO) targeting PTPRA; probably SEQ ID NO:4, 5′ GACATTAAGGAATGCCTTACCCACA 3′ (assignment not stated) (morpholino, cell-permeable, chemistry not fully specified)",spreading on fibronectin-coated coverslips,"RA FLS [4]; cell area after 15, 30 and 60 min",impaired spreading
same,adherence of live cells to fibronectin-coated coverslips,RA FLS [4]; cells per field after 15 min,less adherent
same,RA FLS production of CXCL10 in response to IL-1β,RA FLS [2]; [8],significantly reduced
same,RA FLS production of IL6 in response to IL-1β,RA FLS [2]; [8],significantly reduced
same,RA FLS production of MMP3 in response to IL-1β,RA FLS [2]; [8],significantly reduced
same,RA FLS production of MMP13 in response to IL-1β,RA FLS [2]; [8],significantly reduced
same,RA FLS production of CXCL10 in response to TNF,RA FLS [2]; [9],significantly reduced
same,RA FLS production of MMP13 in response to TNF,RA FLS [2]; [9],significantly reduced
same,expression of IL-1β receptor (IL1R),RA FLS [2]; [10],increased
same,expression of TNF receptor (TNFRSF1A),RA FLS [2]; [10],no effect
same,apoptosis compared to control-treated cells,RA FLS [5],significantly increased
same,TNF- and IL-1β stimulated phosphorylation of AKT-S473,"RA FLS [6]; RA FLS, PMO treatment, FIGS. 3B-3C",reduced
same,TNF- and IL-1β-stimulated phosphorylation of JNK (T183/Y185),RA FLS [6]; [11],impaired
same,TNF- and IL-1β-stimulated phosphorylation of p38-T180/Y182,RA FLS [6]; [11],impaired
same,phosphorylation of FAK-Y397,"RA FLS [6]; RA FLS, RPTPα knockdown with PMO, FIG. 3C",reduced
same,proteolytic processing of NFκB subunit p100 (ratio of p52:p100),RA FLS [6]; [12],unaffected
same,proteolytic processing of NFκB subunit p105 (ratio of p50:p105),RA FLS [6]; [12],unaffected
same,phosphorylation of SRC-Y527,"RA FLS [6]; resting RA FLS, RPTPα knockdown with PMO, FIG. 3A",increased
same,"levels of IκBα following 10 minutes post-stimulation, Ctl vs PTPRA PMO-treated cells","RA FLS [6]; stimulation with TNF or IL-1β, FIG. 3B, 3C",similar
same,basal phosphorylation of IκB kinase (IKK)-αβ on Ser176/180,RA FLS [6]; [13],non-significant trend towards decreased
same,basal phosphorylation of NFκB subunit p65 on Ser536,RA FLS [6]; [13],non-significant trend towards decreased
same,levels of IκBα protein in resting RA FLS,"RA FLS [6]; unstimulated, PMO treatment",modest decrease
"second PTPRA-targeted PMO: second PTPRA-targeted PMO of a different sequence; probably SEQ ID NO:5, 5′ GTGTCTCATCTGAAATCAAGACAAC 3′ (assignment not stated) (morpholino, cell-permeable, chemistry not fully specified)","effect on CXCL10 (reduced production, protein in supernatants by ELISA)",RA FLS [2]; [14],confirmed
same,"effect on IL-6 (reduced production, protein in supernatants by ELISA)",RA FLS [2]; [14],confirmed
"NC1(c2ccc(-c3nc4ccn5c(=O)[nH]nc5c4cc3-c3ccccc3)cc2)CCC1 [MK2206, reference compound]",IL-1β-induced expression of CXCL10,"RA FLS [2]; RA FLS, 2 ng/ml IL-1β with inhibitor for 24 hr, vs DMSO, qPCR, FIG. 4A",increased
same,TNF- and IL-1-induced production of CXCL10,"RA FLS [2]; RA FLS, vs DMSO, qPCR, FIG. 4A",did not dampen
same,TNF- and IL-1-induced production of IL6,"RA FLS [2]; RA FLS, vs DMSO, qPCR, FIG. 4A",increased
same,TNF- and IL-1-induced production of MMP13,"RA FLS [2]; RA FLS, vs DMSO, qPCR, FIG. 4A",did not dampen
same,RA FLS migration and invasiveness,RA FLS [7],attenuate
